Laboratory results as given in ChEMBL document CHEMBL5034025 (Eur J Med Chem, 2021).

Biological target: Glutaminyl-peptide cyclotransferase (Homo sapiens, UniProt Q16769)
Assay: Inhibition of human recombinant glutaminyl cyclase using H-Gln-AMC hydrobromide as substrate measured after 15 mins by fluorimetry

Sequence of Glutaminyl-peptide cyclotransferase (Q16769 whole entry): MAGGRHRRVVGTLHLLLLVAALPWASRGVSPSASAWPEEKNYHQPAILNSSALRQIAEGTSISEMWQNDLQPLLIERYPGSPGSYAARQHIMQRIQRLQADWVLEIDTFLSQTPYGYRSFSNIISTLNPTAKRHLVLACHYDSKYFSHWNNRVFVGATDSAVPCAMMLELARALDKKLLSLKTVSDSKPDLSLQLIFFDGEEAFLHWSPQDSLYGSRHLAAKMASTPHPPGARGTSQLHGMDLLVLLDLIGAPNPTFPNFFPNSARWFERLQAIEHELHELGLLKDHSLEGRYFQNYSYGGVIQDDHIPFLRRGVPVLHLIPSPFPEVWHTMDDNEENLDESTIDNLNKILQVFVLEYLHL

COc1ccc(N(C(=S)NCCCn2cncc2C)C2CCN(C)CC2)cc1OC
IC50: 6.1 nM
